Data: US4459290A, “C-23-Modified derivatives of OMT, pharmaceutical compositions and method of use” (priority 1982, dated 1984)
Converted amounts (≈) assume the structure as drawn. Structures can show the parent of a compound that is named as a salt. Where two headings read alike, the source gives them in different places.

Tests used:
[1] = system: Pasteurella hemolytica 23C; test: MIC, broth-dilution microtiter test (Table VII); format: cell-based; details: Pasteurella, P. hemolytica 23C, read-out: MIC
Protocol: (§1) Especially noteworthy is the improved activity against gram-negative bacteria for several derivatives when compared to the activity of OMT. […] The MIC's in Tables V and VI were determined by standard agar-dilution assays. The MIC's in Table VII were obtained using a conventional broth-dilution microtiter test.

[2] = system: Pasteurella multocida 40G; test: MIC, broth-dilution microtiter test (Table VII); format: cell-based; details: Pasteurella multocida; P. multocida 40G; broth-dilution microtiter; read-out: MIC
Protocol: as §1

Mycoplasma hyorhinis = test: MIC, broth-dilution microtiter test (Table VII); format: cell-based
Protocol: as §1

Mycoplasma synoviae = test: MIC, broth-dilution microtiter test (Table VII); format: cell-based; details: Mycoplasmopsis synoviae
Protocol: as §1

Mycoplasma gallisepticum = test: MIC, broth-dilution microtiter test (Table VII); format: cell-based; details: Mycoplasmoides gallisepticum
Protocol: as §1

[3] = system: Pasteurella hemolytica 22C; test: MIC, broth-dilution microtiter test (Table VII); format: cell-based; details: Pasteurella, P. hemolytica 22C, read-out: MIC
Protocol: as §1

Streptococcus sp. 80 = test: MIC, broth-dilution microtiter test (Table VII); format: cell-based; details: Streptococcus sp. 80; broth-dilution microtiter; read-out: MIC
Protocol: as §1

[4] = system: Pasteurella multocida 22A; test: MIC, broth-dilution microtiter test (Table VII); format: cell-based; details: Pasteurella multocida; P. multocida 22A; broth-dilution microtiter; read-out: MIC
Protocol: as §1

Staphylococcus aureus = test: MIC, broth-dilution microtiter test (Table VII); format: cell-based; details: Staphylococcus aureus
Protocol: as §1

[5] = system: Pasteurella hemolytica 41D; test: MIC, broth-dilution microtiter test (Table VII); format: cell-based; details: Pasteurella, P. hemolytica 41D, read-out: MIC
Protocol: as §1

[6] = system: Pasteurella multocida 60A; test: MIC, broth-dilution microtiter test (Table VII); format: cell-based; details: Pasteurella multocida
Protocol: as §1

[7] = system: Pasteurella multocida 17E; test: MIC, broth-dilution microtiter test (Table VII); format: cell-based; details: Pasteurella multocida
Protocol: as §1

[8] = system: Pasteurella multocida 68C; test: MIC, broth-dilution microtiter test (Table VII); format: cell-based; details: Pasteurella multocida
Protocol: as §1

[9] = system: Streptococcus pneumoniae Park I; test: microbe, parasite or virus in culture; format: cell-based; details: Streptococcus pneumoniae
Protocol: as §1

[10] = system: Streptococcus Group D X66; test: MIC, standard agar-dilution assay (Table V); format: cell-based
Protocol: as §1

[11] = system: Klebsiella pneumoniae KAE; test: MIC, standard agar-dilution assay (Table V); format: cell-based; details: Klebsiella pneumoniae
Protocol: as §1

Shigella sonnei N9 = test: MIC, standard agar-dilution assay (Table V); format: cell-based
Protocol: as §1

Escherichia coli EC14 = test: MIC, standard agar-dilution assay (Table V); format: cell-based; details: Escherichia coli, EC14
Protocol: as §1

Streptococcus Group 9960 = test: MIC, standard agar-dilution assay (Table V); format: cell-based; details: GROUP9960
Protocol: as §1

[12] = system: Staphylococcus aureus X400; test: MIC, standard agar-dilution assay (Table V); format: cell-based; details: Staphylococcus aureus
Protocol: as §1

[13] = system: Staphylococcus aureus S13E; test: MIC, standard agar-dilution assay (Table V); format: cell-based; details: Staphylococcus aureus, S13E
Protocol: as §1

[14] = system: Staphylococcus epidermidis EPI1; test: MIC, standard agar-dilution assay (Table V); format: cell-based; details: Staphylococcus epidermidis
Protocol: as §1

[15] = system: Staphylococcus aureus V41; test: MIC, standard agar-dilution assay (Table V); format: cell-based; details: Staphylococcus aureus, V41
Protocol: as §1

[16] = system: Klebsiella pneumoniae X26; test: MIC, standard agar-dilution assay (Table V); format: cell-based; details: Klebsiella pneumoniae
Protocol: as §1

[17] = system: Staphylococcus epidermidis EPI2; test: MIC, standard agar-dilution assay (Table V); format: cell-based; details: Staphylococcus epidermidis
Protocol: as §1

Escherichia coli N10 = test: MIC, standard agar-dilution assay (Table V); format: cell-based; details: Escherichia coli, N10
Protocol: as §1

[18] = system: Staphylococcus aureus X1.1; test: MIC, standard agar-dilution assay (Table V); format: cell-based; details: Staphylococcus aureus, X1.1
Protocol: as §1

Pasteurella multocida = test: Protection of one-day-old chicks against Pasteurella multocida infection (Table IX); format: in vivo; details: subcutaneous 30 mg/kg × 2, 1 and 4 hours post-challenge
Protocol: The C-23 modified derivatives of OMT have also shown in vivo antibacterial activity against infections induced by gram-negative bacteria. Table IX summarizes the results of tests in which illustrative compounds were evaluated against Pasteurella infections in one-day-old chicks. The compounds were administered by subcutaneous injection at a dosage of 30 mg/kg, 1 and 4 hours post-challenge of the chicks with Pasteurella multocida (0.1 ml of a twenty-hour tryptose broth culture of an avian P. multocida given subcutaneously). In the tests, all ten non-medicated infected chicks died within 24 hours of Pasteurella challenge.

[19] = system: Streptococcus pyogenes C203; test: ED50 in mice experimentally infected with S. pyogenes C203 (Table VIII); format: in vivo
Protocol: The C-23 modified derivatives of OMT of this invention have shown in vivo antimicrobial activity against experimental infections. When two doses of test compound were administered to mice experimentally infected with a gram-positive bacterium, S. pyogenes C203, the activity observed was measured as an ED50 value [effective dose in mg/kg to protect 50% of the test animals: see Warren Wick, et al., J. Bacteriol. 81, 233-235 (1961)].

[20] = system: Haemophilus influenzae R252; test: MIC, standard agar-dilution assay (Table V); format: cell-based; details: Haemophilus influenzae
Protocol: (§2) The MIC's in Tables V and VI were determined by standard agar-dilution assays. The MIC's in Table VII were obtained using a conventional broth-dilution microtiter test.

Escherichia coli TEM = test: MIC, standard agar-dilution assay (Table V); format: cell-based; details: Escherichia coli
Protocol: as §2

[21] = system: Streptococcus pyogenes C203; test: MIC, standard agar-dilution assay (Table V); format: cell-based; details: Streptococcus pyogenes
Protocol: as §2

[22] = system: Haemophilus influenzae Holt; test: MIC, standard agar-dilution assay (Table V); format: cell-based; details: Haemophilus influenzae
Protocol: as §2

[23] = M. hyorhinis, broth-dilution microtiter, read-out: MIC
[24] = S. aureus, broth-dilution microtiter, read-out: MIC
[25] = P. multocida 68C, broth-dilution microtiter, read-out: MIC
[26] = S. pneumoniae Park I, agar dilution, read-out: MIC
[27] = S. epidermidis EPI1, agar dilution, read-out: MIC
[28] = K. pneumoniae X26, agar dilution, read-out: MIC
[29] = C203, sc, mice, subcutaneous, doses given 1 and 4 hours postinfection, read-out: ED50, Subcutaneous
[30] = S. pyogenes C203, agar dilution, read-out: MIC
[31] = M. synoviae, broth-dilution microtiter, read-out: MIC

Row | Compound | MIC [1] [µg/mL] | MIC [2] [µg/mL] | MIC (Mycoplasma hyorhinis; [23]) [µg/mL] | MIC (Mycoplasma gallisepticum) [µg/mL] | MIC [3] [µg/mL] | MIC (Streptococcus sp. 80) [µg/mL] | MIC [4] [µg/mL] | MIC (Staphylococcus aureus; [24]) [µg/mL] | MIC [5] [µg/mL] | MIC ([6]; 60A) [µg/mL] | MIC ([7]; 17E) [µg/mL] | MIC [8, 25] [µg/mL] | MIC [11] [µg/mL] | MIC (Shigella sonnei N9) [µg/mL] | MIC (Escherichia coli EC14) [µg/mL] | MIC [13] [µg/mL] | MIC [15] [µg/mL] | MIC (Escherichia coli N10) [µg/mL] | MIC [18] [µg/mL] | Number of deaths/number treated (Pasteurella multocida) | other results
1 | CCC1OC(=O)CC(O)C(C)C(OC2OC(C)C(O)C(N(C)C)C2O)C(CC=O)CC(C)C(=O)C=CC(C)=CC1CNC(=O)[C@H](N)c1ccccc1 (single isomer, unassigned) [Compound 12, 23-Deoxy-23-N-(D-(-)-phenylglycyl)amino-OMT bis(trifluoroacetate) salt] | 50 | 25 | > 50 | 3.12 | 50 | 6.25 | 25 | 6.25 | 50 | 12.5 | 12.5 | 25 | > 128 | > 128 | > 128 | 8 | 8 | > 128 | 4 | 9/10 | MIC (Mycoplasma synoviae): 3.12 µg/mL; MIC [9, 26]: 0.5 µg/mL; MIC [10]: 8 µg/mL; MIC (Streptococcus Group 9960): 8 µg/mL; MIC ([12]; X400): 8 µg/mL; MIC [14, 27]: 4 µg/mL; MIC [16, 28]: 16 µg/mL; MIC ([17]; EPI2): 8 µg/mL; ED50 ([19]; C203, po, read-out: ED50, Oral): > 100 mg/kg; ED50 [19, 29]: 6.2 mg/kg; MIC ([20]; H. influenzae R252, ampicillin-resistant strain, agar dilution, read-out: MIC): 16 µg/mL; MIC (Escherichia coli TEM): > 128 µg/mL; MIC [21, 30]: 0.5 µg/mL; MIC ([22]; H. influenzae Holt, ampicillin-sensitive strain, agar dilution, read-out: MIC): 16 µg/mL
2 | CCC1OC(=O)CC(O)C(C)C(OC2OC(C)C(O)C(N(C)C)C2O)C(CC=O)CC(C)C(=O)C=CC(C)=CC1CNC(=O)Cc1ccccc1 (stereo not shown) [Compound 10, 23-Deoxy-23-N-(phenylacetyl)amino-OMT] | 12.5 (≈ 17.5 µM) | 12.5 (≈ 17.5 µM) | – | 1.56 (≈ 2.18 µM) | 12.5 (≈ 17.5 µM) | 0.19 (≈ 0.266 µM) | 25 (≈ 35 µM) | – | 25 (≈ 35 µM) | 3.12 (≈ 4.36 µM) | 3.12 (≈ 4.36 µM) | – | > 128 | > 128 | > 128 | 0.5 (≈ 0.699 µM) | 1 (≈ 1.4 µM) | > 128 | 0.5 (≈ 0.699 µM) | 3/10 | MIC (Mycoplasma hyorhinis): 50 µg/mL (≈ 69.9 µM); MIC (Mycoplasma synoviae; [31]): 0.19 µg/mL (≈ 0.266 µM); MIC (Staphylococcus aureus): 0.78 µg/mL (≈ 1.09 µM); MIC ([8]; 68C): 1.56 µg/mL (≈ 2.18 µM); MIC [9]: 0.25 µg/mL (≈ 0.35 µM); MIC [10]: 0.5 µg/mL (≈ 0.699 µM); MIC (Streptococcus Group 9960): 0.5 µg/mL (≈ 0.699 µM); MIC ([12]; X400): 1 µg/mL (≈ 1.4 µM); MIC ([14]; EPI1): 0.25 µg/mL (≈ 0.35 µM); MIC ([16]; X26): 8 µg/mL (≈ 11.2 µM); MIC ([17]; EPI2): 1 µg/mL (≈ 1.4 µM); ED50 ([19]; C203, po, read-out: ED50, Oral): > 100 mg/kg; ED50 [19, 29]: 5.8 mg/kg; MIC ([20]; R252): 2 µg/mL (≈ 2.8 µM); MIC (Escherichia coli TEM; E. coli TEM, agar dilution, read-out: MIC): 32 µg/mL (≈ 44.8 µM); MIC ([21]; C203): 0.25 µg/mL (≈ 0.35 µM); MIC [22]: 2 µg/mL (≈ 2.8 µM)
3 | CCC1OC(=O)CC(O)C(C)C(OC2OC(C)C(O)C(N(C)C)C2O)C(CC=O)CC(C)C(=O)C=CC(C)=CC1CNC(=O)[C@H](NC(=O)OC(C)(C)C)c1ccccc1 (single isomer, unassigned) [Compound 11, 23-Deoxy-23-[(D)-(-)-(N-t-BOC-phenylglycyl)amino]-OMT] | 25 (≈ 30.1 µM) | 12.5 (≈ 15.1 µM) | > 50 | – | 25 (≈ 30.1 µM) | 0.78 (≈ 0.94 µM) | 12.5 (≈ 15.1 µM) | 3.12 (≈ 3.76 µM) | 50 (≈ 60.2 µM) | – | – | 6.25 (≈ 7.53 µM) | > 128 | > 128 | > 128 | 2 (≈ 2.41 µM) | 2 (≈ 2.41 µM) | > 128 | 1 (≈ 1.2 µM) | 10/10 | MIC (Mycoplasma synoviae; [31]): 0.78 µg/mL (≈ 0.94 µM); MIC (Mycoplasma gallisepticum; M. gallisepticum, broth-dilution microtiter, read-out: MIC): 0.78 µg/mL (≈ 0.94 µM); MIC ([6]; P. multocida 60A, avian isolate, broth-dilution microtiter, read-out: MIC): 12.5 µg/mL (≈ 15.1 µM); MIC ([7]; P. multocida 17E, bovine isolate, broth-dilution microtiter, read-out: MIC): 6.25 µg/mL (≈ 7.53 µM); MIC [9, 26]: 0.25 µg/mL (≈ 0.301 µM); MIC ([10]; Streptococcus Group D X66, agar dilution, read-out: MIC): 2 µg/mL (≈ 2.41 µM); MIC (Streptococcus Group 9960; Streptococcus Group 9960, agar dilution, read-out: MIC): 2 µg/mL (≈ 2.41 µM); MIC ([12]; S. aureus X400, methicillin-resistant strain, agar dilution, read-out: MIC): 4 µg/mL (≈ 4.82 µM); MIC [14, 27]: 1 µg/mL (≈ 1.2 µM); MIC [16, 28]: 16 µg/mL (≈ 19.3 µM); MIC ([17]; S. epidermidis EPI2, agar dilution, read-out: MIC): 4 µg/mL (≈ 4.82 µM); MIC ([20]; R252): 8 µg/mL (≈ 9.64 µM); MIC (Escherichia coli TEM): > 128 µg/mL; MIC [21, 30]: 0.5 µg/mL (≈ 0.602 µM); MIC [22]: 8 µg/mL (≈ 9.64 µM)
